Assay results as given in patent publication US20030171386A1, “Small molecules for the treatment of abnormal cell growth” (Pfizer Inc., priority 2001, published 2003).

How the values were obtained:
[1] = molecular target: T1, chimeric EGFR/erbB2 kinase (Homo sapiens, UniProt P04626); assay: erbB2 receptor autophosphorylation, in vitro cell assay in transfected 3T3 cells; type: cell-based; conditions: intact 3T3 cells transfected with chimeric EGFR/erbB2 kinase; EGF-stimulated phosphotyrosine; read-out: Potency (IC50) for the erbB2 receptor
T1 construct: EGFR extracellular/erbB2 intracellular; expressed in transfected cells; host or cells: 3T3 cells; the other entry of the earlier key: EGFR (P00533, Epidermal growth factor receptor)
T1 sequence (P04626 720-1255 limits assumed, change not shown): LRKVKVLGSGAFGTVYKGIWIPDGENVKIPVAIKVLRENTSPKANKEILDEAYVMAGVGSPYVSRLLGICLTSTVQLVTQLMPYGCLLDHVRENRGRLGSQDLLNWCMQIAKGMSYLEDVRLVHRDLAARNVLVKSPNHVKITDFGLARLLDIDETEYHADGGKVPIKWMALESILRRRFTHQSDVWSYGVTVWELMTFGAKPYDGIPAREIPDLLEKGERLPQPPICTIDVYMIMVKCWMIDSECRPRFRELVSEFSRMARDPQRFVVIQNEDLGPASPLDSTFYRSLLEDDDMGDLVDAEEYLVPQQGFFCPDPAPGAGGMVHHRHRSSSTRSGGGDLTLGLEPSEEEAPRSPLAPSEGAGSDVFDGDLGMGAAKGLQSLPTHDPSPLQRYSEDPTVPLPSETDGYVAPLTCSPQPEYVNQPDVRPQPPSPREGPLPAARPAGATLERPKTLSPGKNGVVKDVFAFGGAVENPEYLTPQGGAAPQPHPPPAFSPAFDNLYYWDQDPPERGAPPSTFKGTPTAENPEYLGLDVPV
Procedure: The in vitro activity of small molecule compounds as erbB kinase inhibitors in intact cells may be determined by the following procedure. Cells, for example 3T3 cells transfected with human EGFR (Cohen et al. J. Virology 67:5303, 1993) or with chimeric EGFR/erbB2 kinase (EGFR extracellular/erbB2 intracellular, Fazioli et al. Mol. Cell. Biol. 11: 2040, 1991) are plated in 96-well plates at 12,000 cells per well in 100 μl medium (Dulbecco's […] (DMEM) with 5% fetal calf serum, 1% pen/streptomycin, 1% L-glutamine) and incubated at 37° C., 5% CO2 Test compounds are solubilized in DMSO at a concentration of 10 mM, and tested at final concentrations of 0, 0.3 μM, 1 μM, […], 0.1 μM and 10 μM in the medium. The cells are incubated at 37° C. for 2 h. EGF (40 ng/ml final) is added to each well and cells incubate at room temperature for 15 min followed by aspiration of medium, then 100 μl/well cold fixative (50% ethanol/50% acetone containing 200 micromolar sodium orthovanadate) is added. The plate is incubated for 30 min at room temperature followed by washing with wash buffer (0.5% Tween 20 in phosphate buffered saline). Blocking buffer (3% bovine serum albumin, 0.05% Tween 20, 200 μM sodium orthovanadate in phosphate buffered saline, 100 μl/well) is added followed by incubation for 2 hours at room temperature followed by two washes with wash buffer. PY54 monoclonal anti-phosphotyrosine antibody directly conjugated to horseradish peroxidase (50 μl/well, 1 μg/ml in blocking buffer) or blocked conjugate (1 μg/ml with 1 mM phosphotyrosine in blocking buffer, to check specificity) is added and the plates incubated for 2 hours at room temperature. The plate wells are then washed 4 times with wash buffer. The colorimetric signal is developed by addition of TMB Microwell Peroxidase Substrate (Kirkegaard and Perry, Gaithersburg, Md.), 50 μl per well, and stopped by the addition of 0.09 M sulfuric acid, 50 μl per well. Absorbance at 450 nm represents phosphotyrosine content of proteins. The increase in signal in EGF-treated cells over control (non-EGF treated) represents the activity of the EGFR or EGFR/chimera respectively. The potency of an inhibitor is determined by measurement of the concentration of compound needed to inhibit the increase in phosphotyrosine by 50% (IC50) in each cell line. The selectivity of the compounds for erbB2 vs. EGFR is determined by comparison of the IC50 for the EGFR transfectant vs. that for the erbB2/EGFR chimera transfectant. Thus, for example, a compound with an IC50 of 100 nM for the EGFR transfectant and 10 nM for the erbB2/EGFR chimera transfectant is considered 10-fold selective for erbB2 kinase.
(§1) The IC50 values for the inhibition of erbB1 receptor autophosphorylation and erbB2 receptor autophophorylation were determined using the in vitro cell assays described above.

human EGFR = molecular target: T2, human EGFR (Homo sapiens, UniProt P00533); assay: erbB1 receptor autophosphorylation, in vitro cell assay in transfected 3T3 cells, used for the erbB2 versus erbB1 selectivity ratio; type: cell-based; conditions: comparison of IC50 for EGFR transfectant vs. erbB2/EGFR chimera transfectant
T2 construct: expressed in transfected cells; host or cells: 3T3 cells
T2 sequence (P00533 25-1210): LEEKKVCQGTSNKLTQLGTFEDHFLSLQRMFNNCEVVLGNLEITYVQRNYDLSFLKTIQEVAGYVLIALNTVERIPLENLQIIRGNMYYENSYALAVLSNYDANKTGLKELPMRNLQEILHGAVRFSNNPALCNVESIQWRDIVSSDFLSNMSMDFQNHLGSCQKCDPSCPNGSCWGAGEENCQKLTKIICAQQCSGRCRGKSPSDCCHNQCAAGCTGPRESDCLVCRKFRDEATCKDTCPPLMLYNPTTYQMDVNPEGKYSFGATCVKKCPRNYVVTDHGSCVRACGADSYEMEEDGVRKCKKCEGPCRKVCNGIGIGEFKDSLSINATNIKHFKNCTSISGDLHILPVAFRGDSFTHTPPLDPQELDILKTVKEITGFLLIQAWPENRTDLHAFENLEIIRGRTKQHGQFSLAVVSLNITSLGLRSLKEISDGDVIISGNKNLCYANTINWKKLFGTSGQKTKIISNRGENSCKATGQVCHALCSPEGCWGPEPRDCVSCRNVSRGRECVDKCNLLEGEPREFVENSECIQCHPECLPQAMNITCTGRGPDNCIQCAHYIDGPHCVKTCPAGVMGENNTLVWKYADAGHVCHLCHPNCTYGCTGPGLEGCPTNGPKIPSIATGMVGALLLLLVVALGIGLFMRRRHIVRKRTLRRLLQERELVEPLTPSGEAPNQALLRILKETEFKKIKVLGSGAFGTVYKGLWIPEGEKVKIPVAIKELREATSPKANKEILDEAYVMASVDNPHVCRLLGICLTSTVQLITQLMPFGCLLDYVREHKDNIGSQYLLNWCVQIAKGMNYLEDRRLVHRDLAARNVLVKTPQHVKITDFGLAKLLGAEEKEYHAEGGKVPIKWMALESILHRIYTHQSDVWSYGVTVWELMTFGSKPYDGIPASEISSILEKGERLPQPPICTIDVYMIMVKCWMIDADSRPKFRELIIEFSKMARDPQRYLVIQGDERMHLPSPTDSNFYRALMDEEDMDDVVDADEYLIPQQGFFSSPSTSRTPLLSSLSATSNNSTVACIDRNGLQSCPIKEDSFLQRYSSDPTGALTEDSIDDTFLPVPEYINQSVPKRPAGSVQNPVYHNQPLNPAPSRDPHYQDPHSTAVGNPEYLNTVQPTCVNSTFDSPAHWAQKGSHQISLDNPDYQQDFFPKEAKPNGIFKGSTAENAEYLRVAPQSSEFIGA
Procedure: The in vitro activity of small molecule compounds as erbB kinase inhibitors in intact cells may be determined by the following procedure. […] The cells are incubated at 37° C. for 2 h. EGF (40 ng/ml final) is added to each well and cells incubate at room temperature for 15 min followed by aspiration of medium, then 100 μl/well cold fixative (50% ethanol/50% acetone containing 200 micromolar sodium orthovanadate) is added. The plate is incubated for 30 min at room temperature followed by washing with wash buffer (0.5% Tween 20 in phosphate buffered saline). Blocking buffer (3% bovine serum albumin, 0.05% Tween 20, 200 μM sodium orthovanadate in phosphate buffered saline, 100 μl/well) is added followed by incubation for 2 hours at room temperature followed by two washes with wash buffer. PY54 monoclonal anti-phosphotyrosine antibody directly conjugated to horseradish peroxidase (50 μl/well, 1 μg/ml in blocking buffer) or blocked conjugate (1 μg/ml with 1 mM phosphotyrosine in blocking buffer, to check specificity) is added and the plates incubated for 2 hours at room temperature. The plate wells are then washed 4 times with wash buffer. The colorimetric signal is developed by addition of TMB Microwell Peroxidase Substrate (Kirkegaard and Perry, Gaithersburg, Md.), 50 μl per well, and stopped by the addition of 0.09 M sulfuric acid, 50 μl per well. […] The increase in signal in EGF-treated cells over control (non-EGF treated) represents the activity of the EGFR or EGFR/chimera respectively. […] The selectivity of the compounds for erbB2 vs. EGFR is determined by comparison of the IC50 for the EGFR transfectant vs. that for the erbB2/EGFR chimera transfectant.
as §1

[2] = clinical trials, patients; cited from earlier work
[3] = system: transplanted human mammary carcinoma, which expresses epidermal growth factor receptor tyrosine kinase (EGFR); conditions: EGFR-expressing human mammary carcinoma in athymic nude mice; cited from earlier work
[4] = system: another carcinoma, which does not express the EGF receptor; conditions: carcinoma not expressing the EGF receptor; cited from earlier work

Compound | IC50 [1] | erbB2/erbB1 ratio (selectivity) (human EGFR) | dermal toxicity (rash) [2] | tumor growth [3] | tumor growth [4]
Cc1cc(Nc2ncnc3ccc(/C=C/CNC(=O)C4CC4)cc23)ccc1Oc1cccnc1 [Example 2, E-Cyclopropanecarboxylic acid (3-{4-[3-methyl-4-(pyridin-3-yloxy)-phenylamino]-quinazolin-6-yl}-allyl)-amide] | 21 to 50 nM | 658 |  |  | 
Cc1ccc(Oc2ccc(Nc3ncnc4ccc(/C=C/CNC(=O)c5cc(C)on5)cc34)cc2C)cn1 [Example 6, E-5-Methyl-isoxazole-3-carboxylic acid (3-{4-[3-methyl-4-(6-methyl-pyridin-3-yloxy)-phenylamino]-quinazolin-6-yl}-allyl)-amide] | < 20 nM | 437 |  |  | 
CCNC(=O)NCC#Cc1ccc2ncnc(Nc3ccc(Oc4cccnc4)c(Cl)c3)c2c1 [Example 12, 1-(3-{4-[3-Chloro-4-(pyridin-3-yloxy)-phenylamino]-quinazolin-6-yl}-prop-2-ynyl)-3-ethyl-urea] | 21 to 50 nM | 121 |  |  | 
CCNC(=O)NCC#Cc1ccc2ncnc(Nc3ccc(Oc4cccnc4)c(C)c3)c2c1 [Example 10, 1-Ethyl-3-(3-{4-[3-methyl-4-(pyridin-3-yloxy)-phenylamino]-quinazolin-6-yl}-prop-2-ynyl)-urea] | 21 to 50 nM | 112 |  |  | 
CC(=O)C(=O)NCC#Cc1ccc2ncnc(Nc3cnc(Oc4ccccc4)c(C)c3)c2c1 [Example 1, N-{3-[4-(5-Methyl-6-phenoxy-pyridin-3-ylamino)-quinazolin-6-yl]-prop-2-ynyl}-2-oxo-propionamide] | < 20 nM | 101 |  |  | 
COCC(=O)NCC#Cc1ccc2ncnc(Nc3ccc(Oc4cccc(OC)c4)c(C)c3)c2c1 [Example 3, 2-Methoxy-N-(3-{4-[4-(3-methoxy-phenoxy)-3-methyl-phenylamino]-quinazolin-6-yl}-prop-2-ynyl)-acetamide] | 21 to 50 nM | 103 |  |  | 
COc1cc2ncnc(Nc3ccc(F)c(Cl)c3)c2cc1OCCCN1CCOCC1 [ZD1839] |  |  | this adverse event was observed |  | 
C#Cc1cccc(Nc2ncnc3cc(OCCOC)c(OCCOC)cc23)c1 [CP-358,774] |  |  | this adverse event was observed |  | 
COCC(=O)NC/C=C/c1ccc2ncnc(Nc3ccc(Oc4ccc(C)nc4)c(C)c3)c2c1 [Example 9, E-2-Methoxy-N-(3-{4-[3-methyl-4-(6-methyl-pyridin-3-yloxy)-phenylamino]-quinazolin-6-yl}-allyl)-acetamide] | 21 to 50 nM | 116 |  |  | 
O=CN/C=C/c1cc(O)ccc1O [erbstatin] |  |  |  | selectively attenuates the growth | without effect on the growth
Cc1cc(Nc2ncnc3ccc(C#CC4CCNCC4)cc23)ccc1Oc1cccnc1 [Example 14, [3-Methyl-4-(pyridin-3-yloxy)-phenyl]-(6-piperidin-4-ylethynyl-quinazolin-4-yl)-amine] | 21 to 50 nM | 196 |  |  | 
Cc1ccc(Oc2ccc(Nc3ncnc4ccc(/C=C/CNC(=O)C5CC5)cc34)cc2Cl)cn1 [Example 4, E-Cyclopropanecarboxylic acid (3-{4-[3-chloro-4-(6-methyl-pyridin-3-yloxy)-phenylamino]-quinazolin-6-yl}-allyl)-amide] | 21 to 50 nM | 142 |  |  | 
CC(=O)NC/C=C/c1ccc2ncnc(Nc3ccc(Oc4ccc(C)nc4)c(Cl)c3)c2c1 [Example 5, E-N-(3-{4-[3-Chloro-4-(6-methyl-pyridin-3-yloxy)-phenylamino]-quinazolin-6-yl}-allyl)-acetamide] | 21 to 50 nM | 108 |  |  | 
Cc1ccc(Oc2ccc(Nc3ncnc4ccc(/C=C/CNC(=O)C5CC5)cc34)cc2C)cn1 [Example 11, E-Cyclopropanecarboxylic acid (3-{4-[3-methyl-4-(6-methyl-pyridin-3-yloxy)-phenylamino]-quinazolin-6-yl}-allyl)-amide] | 21 to 50 nM | 122 |  |  | 
CCOc1cc2ncc(C#N)c(Nc3ccc(F)c(Cl)c3)c2cc1NC(=O)/C=C/CN(C)C [EKB-569] |  |  | dermal toxicity in the form of a rash occurs |  | 
COC(=O)NCC#Cc1ccc2ncnc(Nc3ccc(Oc4cccnc4)c(C)c3)c2c1 [Example 15, (3-{4-[3-Methyl-4-(pyridin-3-yloxy)-phenylamino]-quinazolin-6-yl}-prop-2-ynyl)-carbamic acid methyl ester] | 51 to 100 nM | 140 |  |  | 
C=CC(=O)Nc1cc2c(Nc3ccc(F)c(Cl)c3)ncnc2cc1OCCCN1CCOCC1 [CI-1033] |  |  | dermal toxicity in the form of a rash occurs |  | 
COC(=O)NC/C=C/c1ccc2ncnc(Nc3ccc(Oc4cccnc4)c(C)c3)c2c1 [Example 7, E-(3-{4-[3-Methyl-4-(pyridin-3-yloxy)-phenylamino]-quinazolin-6-yl}-allyl)-carbamic acid methyl ester] | 21 to 50 nM | 1133 |  |  | 
COC1CCN(C(=O)NC(C)(C)C#Cc2ccc3ncnc(Nc4ccc(Oc5ccc(C)nc5)c(C)c4)c3c2)C1 (centres unmarked) [Example 8, 3-Methoxy-pyrrolidine-1-carboxylic acid (1,1-dimethyl-3-{4-[3-methyl-4-(6-methyl-pyridin-3-yloxy)-phenylamino]-quinazolin-6-yl}-prop-2-ynyl)-amide] | 51 to 100 nM | 308 |  |  | 
Cc1ccc(Oc2ccc(Nc3ncnc4ccc(C#CCNC(=O)c5cc(C)no5)cc34)cc2C)cn1 [Example 16, 3-Methyl-isoxazole-5-carboxylic acid (3-{4-[3-methyl-4-(6-methyl-pyridin-3-yloxy)-phenylamino]-quinazolin-6-yl}-prop-2-ynyl)-amide] | 21 to 50 nM | 216 |  |  | 
Cc1cc(Nc2ncnc3ccc(C#CCNC(=O)CN(C)C)cc23)ccc1Oc1cccnc1 [Example 13, 2-Dimethylamino-N-(3-{4-[3-methyl-4-(pyridin-3-yloxy)-phenylamino]-quinazolin-6-yl}-prop-2-ynyl)-acetamide] | < 20 nM | 182 |  |  | 
